Experimental data taken from article PMC6001238, “Iterative Chemical Engineering of Vancomycin Leads to Novel Vancomycin Analogs With a High in Vitro Therapeutic Index” (Frontiers in Microbiology, 2018).
Values after ≈ are worked out from the molar mass of the structure shown.

Columns and labels:
MRSA KS89 = assay: MIC, broth microdilution, MRSA KS89; type: cell-based, Staphylococcus aureus; settings: for MIC-fold improvement vs. vancomycin: MRSA KS8, ratio of MIC of vancomycin and MIC of analogue; for MIC: Staphylococcus aureus MRSA KS8, read-out: MIC
Outline: (§1)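 Inhibitory concentrations were read by the CLSI broth microdilution procedure, with water and sterile broth as controls. One experiment added vancomycin (10 μM final) together with each analogue or reference antibiotic.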

MRSA KS2 = assay: MIC, broth microdilution, MRSA KS2; type: cell-based, Staphylococcus aureus; settings: for MIC-fold improvement vs. vancomycin: MRSA KS2, ratio of MIC of vancomycin and MIC of analogue; for MIC: Staphylococcus aureus MRSA KS2, read-out: MIC
Procedure: (§2) The minimum inhibitory concentration (MIC) was determined using the broth microdilution method according to the antimicrobial susceptibility testing standards of the clinical and laboratory standards institute ([Clinical and Laboratory Standards Institute [CLSI], 2012]). Ultrapure water and non-inoculated broth were used as controls. In one case, a final concentration of 10 μM vancomycin was included with the vancomycin analog or control antibiotic.

S. aureus VISA/HIP5827 = assay: MIC, broth microdilution, vancomycin-intermediate S. aureus VISA HIP5827; type: cell-based, Staphylococcus aureus; settings: for MIC: Staphylococcus aureus VISA/HIP5827, read-out: MIC; for MIC-fold improvement vs. vancomycin: VISA/HIP5827, ratio of MIC of vancomycin and MIC of analogue
Outline: as §1

[1] = tested on: S. aureus VSSA (ATCC 6538); assay: MIC, broth microdilution, vancomycin-sensitive S. aureus (VSSA/MSSA, ATCC 6538); type: cell-based, Staphylococcus aureus; settings: for MIC: Staphylococcus aureus VSSA, read-out: MIC; for MIC-fold improvement vs. vancomycin: VSSA, ratio of MIC of vancomycin and MIC of analogue
Outline: as §1

S. aureus VRSA = assay: MIC, broth microdilution, vancomycin-resistant S. aureus (VRSA); type: cell-based, Staphylococcus aureus; settings: for MIC: Staphylococcus aureus VRSA, read-out: MIC; for MIC-fold improvement vs. vancomycin: VRSA, ratio of MIC of vancomycin and MIC of analogue
Outline: as §1

E. faecalis VRE 37 = assay: MIC, broth microdilution, vancomycin-resistant E. faecalis VRE 37 (VanA); type: cell-based, Enterococcus faecalis; settings: for MIC: Enterococcus faecalis VRE 37 (vancomycin-resistant), read-out: MIC; for MIC-fold improvement vs. vancomycin: VRE 37, ratio of MIC of vancomycin and MIC of analogue
Outline: as §1

[2] = tested on: human T-lymphocyte (CEM) cells; assay: Cytostatic activity, CEM cell proliferation; type: cell-based; settings: mean ± SD of three experiments; highest concentration tested 250 µM; 3 days; read-out: Toxicity (IC50) CEM
Outline: (§3)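 Test compounds, serially diluted, received an equal volume of cell suspension at 300,000–500,000 cells/mL. After 37°C incubation (2 days for L1210, 3 for CEM, 4 for HeLa), cells were enumerated by Coulter counting and 50%-inhibitory concentrations calculated per cell type.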

[3] = tested on: Murine leukemia (L1210) cells; assay: Cytostatic activity, L1210 cell proliferation; type: cell-based; settings: mean ± SD of three experiments; highest concentration tested 250 µM; 2 days; read-out: Toxicity (IC50) L1210
Outline: as §3

[4] = tested on: human cervix carcinoma (HeLa) cells; assay: Cytostatic activity, HeLa cell proliferation; type: cell-based; settings: mean ± SD of three experiments; highest concentration tested 250 µM; 4 days; read-out: Toxicity (IC50) HeLa
Outline: as §3

[5] = tested on: L1210, CEM and HeLa cell lines; assay: Cytostatic activity, average or summary over L1210, CEM and HeLa; type: cell-based; settings: average of L1210, CEM and HeLa; read-out: Toxicity (IC50) Average
Outline: as §3

MRSA KS6 = assay: MIC, broth microdilution, MRSA KS6; type: cell-based, Staphylococcus aureus; settings: for MIC-fold improvement vs. vancomycin: MRSA KS6, ratio of MIC of vancomycin and MIC of analogue; for MIC: Staphylococcus aureus MRSA KS6, read-out: MIC
Procedure: as §2

E. faecalis VSE 1 = assay: MIC, broth microdilution, vancomycin-sensitive E. faecalis (VSE 1); type: cell-based, Enterococcus faecalis; settings: for MIC: Enterococcus faecalis VSE 1 (vancomycin-sensitive), read-out: MIC; for MIC-fold improvement vs. vancomycin: VSE 1, ratio of MIC of vancomycin and MIC of analogue
Outline: as §1

MRSA KS1 = assay: MIC, broth microdilution, MRSA KS1; type: cell-based, Staphylococcus aureus; settings: for MIC-fold improvement vs. vancomycin: MRSA KS1, ratio of MIC of vancomycin and MIC of analogue; for MIC: Staphylococcus aureus MRSA KS1, read-out: MIC
Procedure: as §2

E. faecalis VRE 6 = assay: MIC, broth microdilution, vancomycin-resistant E. faecalis VRE 6 (VanA); type: cell-based, Enterococcus faecalis; settings: for MIC: Enterococcus faecalis VRE 6 (vancomycin-resistant), read-out: MIC; for MIC-fold improvement vs. vancomycin: VRE 6, ratio of MIC of vancomycin and MIC of analogue
Outline: as §1

E. faecalis VRE 29 = assay: MIC, broth microdilution, vancomycin-resistant E. faecalis VRE 29 (VanA); type: cell-based, Enterococcus faecalis; settings: for MIC: Enterococcus faecalis VRE 29 (vancomycin-resistant), read-out: MIC; for MIC-fold improvement vs. vancomycin: VRE 29, ratio of MIC of vancomycin and MIC of analogue
Outline: as §1

E. faecalis VRE 53 = assay: MIC, broth microdilution, vancomycin-resistant E. faecalis VRE 53 (VanA); type: cell-based, Enterococcus faecalis; settings: for MIC: Enterococcus faecalis VRE 53 (vancomycin-resistant), read-out: MIC; for MIC-fold improvement vs. vancomycin: VRE 53, ratio of MIC of vancomycin and MIC of analogue
Outline: as §1

Compound	MIC-fold improvement vs. vancomycin (MRSA KS89)	MIC (MRSA KS89)	MIC-fold improvement vs. vancomycin (MRSA KS2)	MIC (MRSA KS2)	MIC (S. aureus VISA/HIP5827)	MIC-fold improvement vs. vancomycin (S. aureus VISA/HIP5827)	MIC [1]	MIC-fold improvement vs. vancomycin [1]	MIC (S. aureus VRSA)	MIC-fold improvement vs. vancomycin (S. aureus VRSA)	MIC (E. faecalis VRE 37)	IC50 [2]	IC50 [3]	IC50 [4]	IC50 [5]	MIC-fold improvement vs. vancomycin (MRSA KS6)	MIC (MRSA KS6)	MIC (E. faecalis VSE 1)	MIC-fold improvement vs. vancomycin (E. faecalis VSE 1)	MIC-fold improvement vs. vancomycin (MRSA KS1)	other results
CN[C@H](CC(C)C)C(=O)N[C@H]1C(=O)N[C@@H](CC(N)=O)C(=O)N[C@H]2C(=O)N[C@H]3C(=O)N[C@H](C(=O)N[C@H](C(=O)NCC(=O)Nc4ccc(C)cc4Cl)c4cc(O)cc(O)c4-c4cc3ccc4O)[C@H](O)c3ccc(c(Cl)c3)Oc3cc2cc(c3O[C@@H]2O[C@H](CO)[C@@H](O)[C@H](O)[C@H]2O[C@H]2C[C@](C)(N)[C@H](O)[C@H](C)O2)Oc2ccc(cc2Cl)[C@H]1O [Vanc-2]	2	0.39 µM (≈ 0.636 µg/mL)	2	0.39 µM (≈ 0.636 µg/mL)	0.78 µM (≈ 1.27 µg/mL)	8	0.78 µM (≈ 1.27 µg/mL)	1	12.5 µM (≈ 20.4 µg/mL)	8	25 µM (≈ 40.7 µg/mL)	> 250 µM	> 250 µM	158 ± 84 µM	219 µM	2	0.39 µM (≈ 0.636 µg/mL)	0.39 µM (≈ 0.636 µg/mL)	4	2	MIC (MRSA KS1): 0.39 µM (≈ 0.636 µg/mL); MIC (E. faecalis VRE 6): 12.5 µM (≈ 20.4 µg/mL); MIC-fold improvement vs. vancomycin (E. faecalis VRE 6): 16; MIC (E. faecalis VRE 29): 12.5 µM (≈ 20.4 µg/mL); MIC-fold improvement vs. vancomycin (E. faecalis VRE 29): 32; MIC (E. faecalis VRE 53): 25 µM (≈ 40.7 µg/mL); MIC-fold improvement vs. vancomycin (E. faecalis VRE 53): 16
CN[C@H](CC(C)C)C(=O)N[C@H]1C(=O)N[C@@H](CC(N)=O)C(=O)N[C@H]2C(=O)N[C@H]3C(=O)N[C@H](C(=O)N[C@H](C(=O)NCC(=O)Nc4ccc(C#Cc5ccccc5)cc4)c4cc(O)cc(O)c4-c4cc3ccc4O)[C@H](O)c3ccc(c(Cl)c3)Oc3cc2cc(c3O[C@@H]2O[C@H](CO)[C@@H](O)[C@H](O)[C@H]2O[C@H]2C[C@](C)(N)[C@H](O)[C@H](C)O2)Oc2ccc(cc2Cl)[C@H]1O [Vanc-38]	4	0.20 µM (≈ 0.336 µg/mL)	4	0.20 µM (≈ 0.336 µg/mL)	0.05 µM (≈ 0.0841 µg/mL)	128	0.05 µM (≈ 0.0841 µg/mL)	16	0.78 µM (≈ 1.31 µg/mL)	128	3.13 µM (≈ 5.26 µg/mL)	4.4 ± 0.5 µM	8 ± 3.1 µM	24 ± 1 µM	12 µM	4	0.20 µM (≈ 0.336 µg/mL)	0.20 µM (≈ 0.336 µg/mL)	8	4	MIC-fold improvement vs. vancomycin (E. faecalis VRE 37): 128; MIC (MRSA KS1): 0.20 µM (≈ 0.336 µg/mL); MIC (E. faecalis VRE 6): 0.39 µM (≈ 0.656 µg/mL); MIC-fold improvement vs. vancomycin (E. faecalis VRE 6): 513; MIC (E. faecalis VRE 29): 1.56 µM (≈ 2.62 µg/mL); MIC-fold improvement vs. vancomycin (E. faecalis VRE 29): 256; MIC (E. faecalis VRE 53): 3.13 µM (≈ 5.26 µg/mL); MIC-fold improvement vs. vancomycin (E. faecalis VRE 53): 128
CNC(CC(C)C)C(=O)NC1C(=O)NC(CC(N)=O)C(=O)NC2C(=O)NC3C(=O)NC(C(=O)NC(C(=O)NCC(=O)Nc4cccc(OC)c4)c4cc(O)cc(O)c4-c4cc3ccc4O)C(O)c3ccc(c(Cl)c3)Oc3cc2cc(c3OC2OC(CO)C(O)C(O)C2OC2CC(C)(N)C(O)C(C)O2)Oc2ccc(cc2Cl)C1O (stereo not shown) [Vanc-12]	2	0.39 µM (≈ 0.628 µg/mL)	2	0.39 µM (≈ 0.628 µg/mL)	0.39 µM (≈ 0.628 µg/mL)	16	0.39 µM (≈ 0.628 µg/mL)	2	12.5 µM (≈ 20.1 µg/mL)	8	25 µM (≈ 40.3 µg/mL)	> 250 µM	> 250 µM	194 ± 78 µM	231 µM	1	0.78 µM (≈ 1.26 µg/mL)	0.78 µM (≈ 1.26 µg/mL)	2	2	MIC (MRSA KS1): 0.39 µM (≈ 0.628 µg/mL); MIC (E. faecalis VRE 6): 6.25 µM (≈ 10.1 µg/mL); MIC-fold improvement vs. vancomycin (E. faecalis VRE 6): 32; MIC (E. faecalis VRE 29): 12.5 µM (≈ 20.1 µg/mL); MIC (E. faecalis VRE 53): 12.5 µM (≈ 20.1 µg/mL); MIC-fold improvement vs. vancomycin (E. faecalis VRE 53): 32
CNC(CC(C)C)C(=O)NC1C(=O)NC(CC(N)=O)C(=O)NC2C(=O)NC3C(=O)NC(C(=O)NC(C(=O)NCC(=O)Nc4ccc(C#CC5CC5)cc4)c4cc(O)cc(O)c4-c4cc3ccc4O)C(O)c3ccc(c(Cl)c3)Oc3cc2cc(c3OC2OC(CO)C(O)C(O)C2OC2CC(C)(N)C(O)C(C)O2)Oc2ccc(cc2Cl)C1O (stereo not shown) [Vanc-70]	2	0.39 µM (≈ 0.642 µg/mL)	4	0.20 µM (≈ 0.329 µg/mL)	0.78 µM (≈ 1.28 µg/mL)	8	0.78 µM (≈ 1.28 µg/mL)	1	1.56 µM (≈ 2.57 µg/mL)	64	6.25 µM (≈ 10.3 µg/mL)	143 ± 113 µM	≥ 250 µM	73 ± 10 µM	155 µM	4	0.20 µM (≈ 0.329 µg/mL)	0.78 µM (≈ 1.28 µg/mL)	2	4	MIC-fold improvement vs. vancomycin (E. faecalis VRE 37): 64; MIC (MRSA KS1): 0.20 µM (≈ 0.329 µg/mL); MIC (E. faecalis VRE 6): 6.25 µM (≈ 10.3 µg/mL); MIC-fold improvement vs. vancomycin (E. faecalis VRE 6): 32; MIC (E. faecalis VRE 29): 6.25 µM (≈ 10.3 µg/mL); MIC-fold improvement vs. vancomycin (E. faecalis VRE 29): 64; MIC (E. faecalis VRE 53): 6.25 µM (≈ 10.3 µg/mL); MIC-fold improvement vs. vancomycin (E. faecalis VRE 53): 64
